Source: patent US6727274B2, “Arylsulphonyl substituted-tetrahydro- and hexahydro-carbazoles” (Pharmacia & Upjohn Company, priority 2001, dated 2004)

CN[C@@H]1CCc2c(c3cc(S(=O)(=O)c4ccccc4)ccc3n2C)C1.Cl
melting point: > 275 °C
